Measured values: PubChem BioAssay (NCI)
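Compound exposure: 48 hours, 5 concentrations, 96-well plates. GI50 = concentration required for 50% inhibition of growth. The concentration for full growth arrest is given as TGI.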

Tests used:
Assay in all cases: DTP human tumour cell line panel, 48 h
OVCAR-5 ovarian = tested on: OVCAR-5 ovarian
SW-620 colon = tested on: SW-620 colon
RXF 393 renal = tested on: RXF 393 renal
HCC-2998 colon = tested on: HCC-2998 colon
SN12C renal = tested on: SN12C renal
DU-145 prostate = tested on: DU-145 prostate
RPMI-8226 leukemia = tested on: RPMI-8226 leukemia
NCI-H23 lung = tested on: NCI-H23 lung
OVCAR-8 ovarian = tested on: OVCAR-8 ovarian
UO-31 renal = tested on: UO-31 renal
MDA-MB-435 = tested on: MDA-MB-435
SNB-75 CNS = tested on: SNB-75 CNS
A498 renal = tested on: A498 renal
NCI-H522 lung = tested on: NCI-H522 lung
A549 NSCLC = tested on: A549 NSCLC
EKVX NSCLC = tested on: EKVX NSCLC
SF-539 CNS = tested on: SF-539 CNS
786-0 renal = tested on: 786-0 renal
U251 CNS = tested on: U251 CNS
HCT-116 colon = tested on: HCT-116 colon
MCF7 breast = tested on: MCF7 breast
HS 578T breast = tested on: HS 578T breast
SK-MEL-2 melanoma = tested on: SK-MEL-2 melanoma
K-562 leukemia = tested on: K-562 leukemia
M14 melanoma = tested on: M14 melanoma
HOP-62 NSCLC = tested on: HOP-62 NSCLC
SK-MEL-5 melanoma = tested on: SK-MEL-5 melanoma
HL-60(TB) leukemia = tested on: HL-60(TB) leukemia
SR leukemia = tested on: SR leukemia
LOX IMVI melanoma = tested on: LOX IMVI melanoma
SK-OV-3 ovarian = tested on: SK-OV-3 ovarian
NCI/ADR-RES ovarian = tested on: NCI/ADR-RES ovarian
CAKI-1 renal = tested on: CAKI-1 renal
HCT-15 colon = tested on: HCT-15 colon
ACHN renal = tested on: ACHN renal
SK-MEL-28 melanoma = tested on: SK-MEL-28 melanoma
NCI-H226 lung = tested on: NCI-H226 lung
HT29 colon = tested on: HT29 colon
MDA-MB-231 breast = tested on: MDA-MB-231 breast
UACC-257 melanoma = tested on: UACC-257 melanoma
IGROV1 ovarian = tested on: IGROV1 ovarian
SNB-19 CNS = tested on: SNB-19 CNS
COLO 205 colon = tested on: COLO 205 colon
T-47D breast = tested on: T-47D breast
UACC-62 melanoma = tested on: UACC-62 melanoma
MDA-N = tested on: MDA-N
HOP-92 NSCLC = tested on: HOP-92 NSCLC
SF-295 CNS = tested on: SF-295 CNS
MOLT-4 leukemia = tested on: MOLT-4 leukemia
MALME-3M melanoma = tested on: MALME-3M melanoma
TK-10 renal = tested on: TK-10 renal
CCRF-CEM leukemia = tested on: CCRF-CEM leukemia
KM12 colon = tested on: KM12 colon
SF-268 CNS = tested on: SF-268 CNS
PC-3 prostate = tested on: PC-3 prostate
OVCAR-4 ovarian = tested on: OVCAR-4 ovarian
BT-549 breast = tested on: BT-549 breast
NCI-H460 lung = tested on: NCI-H460 lung
OVCAR-3 ovarian = tested on: OVCAR-3 ovarian

Compound `N#CC12CC(C=O)=C(N)C1(C#N)CC(C=O)=C2N` (stereo not given) has a TGI (OVCAR-5 ovarian) of over 100 µM, a TGI (SW-620 colon) of over 100 µM and a TGI (RXF 393 renal) of over 100 µM. It also gave a TGI (HCC-2998 colon) of 80 µM, a TGI (SN12C renal) of over 100 µM and a TGI (DU-145 prostate) of over 100 µM. It also gave a TGI (RPMI-8226 leukemia) of over 100 µM, a TGI (NCI-H23 lung) of over 100 µM and a TGI (OVCAR-8 ovarian) of over 100 µM. It also gave a TGI (UO-31 renal) of over 100 µM, a TGI (MDA-MB-435) of over 100 µM and a TGI (SNB-75 CNS) of over 100 µM. For the same compound, the TGI (A498 renal) was over 100 µM, the TGI (NCI-H522 lung) was over 100 µM and the TGI (A549 NSCLC) was over 100 µM. It also gave a TGI (EKVX NSCLC) of over 100 µM, a TGI (SF-539 CNS) of over 100 µM and a TGI (786-0 renal) of over 100 µM. For the same compound, the TGI (U251 CNS) was over 100 µM, the TGI (HCT-116 colon) was over 100 µM and the TGI (MCF7 breast) was over 100 µM. It also gave a TGI (HS 578T breast) of over 100 µM, a TGI (SK-MEL-2 melanoma) of 76.3 µM and a TGI (K-562 leukemia) of over 100 µM. It also gave a TGI (M14 melanoma) of over 100 µM, a TGI (HOP-62 NSCLC) of over 100 µM and a TGI (SK-MEL-5 melanoma) of 54.1 µM. For the same compound, the TGI (HL-60(TB) leukemia) was over 100 µM, the TGI (SR leukemia) was over 100 µM and the TGI (LOX IMVI melanoma) was over 100 µM. It also gave a TGI (SK-OV-3 ovarian) of over 100 µM, a TGI (NCI/ADR-RES ovarian) of over 100 µM and a TGI (CAKI-1 renal) of over 100 µM. The TGI (HCT-15 colon) was 38.5 µM, the TGI (ACHN renal) was over 100 µM and the TGI (SK-MEL-28 melanoma) was over 100 µM. For the same compound, the TGI (NCI-H226 lung) was over 100 µM, the TGI (HT29 colon) was over 100 µM and the TGI (MDA-MB-231 breast) was over 100 µM. For the same compound, the TGI (UACC-257 melanoma) was over 100 µM, the TGI (IGROV1 ovarian) was over 100 µM and the TGI (SNB-19 CNS) was over 100 µM. The TGI (COLO 205 colon) was over 100 µM, the TGI (T-47D breast) was over 100 µM and the TGI (UACC-62 melanoma) was over 100 µM. For the same compound, the TGI (MDA-N) was over 100 µM, the TGI (HOP-92 NSCLC) was over 100 µM and the TGI (SF-295 CNS) was over 100 µM. It also gave a TGI (MOLT-4 leukemia) of over 100 µM, a TGI (MALME-3M melanoma) of over 100 µM and a TGI (TK-10 renal) of over 100 µM. The TGI (CCRF-CEM leukemia) was over 100 µM, the TGI (KM12 colon) was over 100 µM and the TGI (SF-268 CNS) was over 100 µM. It also gave a TGI (PC-3 prostate) of over 100 µM.
For `Cn1cc(-c2ncnc3ccc(-c4cnc(Cl)c(NS(C)(=O)=O)c4)cc23)c2ccccc21`, the GI50 (OVCAR-5 ovarian) was 0.382 µM, the TGI (OVCAR-5 ovarian) was over 100 µM and the GI50 (SW-620 colon) was 1.28 µM. The TGI (SW-620 colon) was over 100 µM, the GI50 (RXF 393 renal) was 0.435 µM and the TGI (RXF 393 renal) was 4.05 µM. For the same compound, the GI50 (HCC-2998 colon) was 0.812 µM, the TGI (HCC-2998 colon) was 13.3 µM and the GI50 (SN12C renal) was 0.856 µM. The TGI (SN12C renal) was over 100 µM, the GI50 (DU-145 prostate) was 1.05 µM and the TGI (DU-145 prostate) was over 100 µM. For the same compound, the GI50 (RPMI-8226 leukemia) was 0.419 µM, the TGI (RPMI-8226 leukemia) was 4.17 µM and the GI50 (NCI-H23 lung) was 0.903 µM. For the same compound, the TGI (NCI-H23 lung) was over 52 µM, the GI50 (OVCAR-8 ovarian) was 1.72 µM and the TGI (OVCAR-8 ovarian) was over 100 µM. It also gave a GI50 (UO-31 renal) of 0.164 µM, a TGI (UO-31 renal) of 5 µM and a GI50 (OVCAR-4 ovarian) of 0.921 µM. It also gave a TGI (OVCAR-4 ovarian) of 6.99 µM, a GI50 (MDA-MB-435) of 0.514 µM and a TGI (MDA-MB-435) of 10.8 µM. The GI50 (SNB-75 CNS) was 0.127 µM, the TGI (SNB-75 CNS) was 1.98 µM and the GI50 (BT-549 breast) was 0.566 µM. It also gave a TGI (BT-549 breast) of 7.68 µM, a GI50 (A498 renal) of 0.207 µM and a TGI (A498 renal) of 1.4 µM. The GI50 (NCI-H522 lung) was 1.42 µM, the TGI (NCI-H522 lung) was over 100 µM and the GI50 (A549 NSCLC) was 0.814 µM. The TGI (A549 NSCLC) was 9.41 µM, the GI50 (EKVX NSCLC) was 0.598 µM and the GI50 (SF-539 CNS) was 0.656 µM. It also gave a TGI (SF-539 CNS) of 4.3 µM, a GI50 (786-0 renal) of 1.44 µM and a TGI (786-0 renal) of over 100 µM. For the same compound, the GI50 (U251 CNS) was 1.65 µM, the TGI (U251 CNS) was 23.4 µM and the GI50 (HCT-116 colon) was 2.37 µM. The TGI (HCT-116 colon) was 98.1 µM, the GI50 (MCF7 breast) was 0.205 µM and the TGI (MCF7 breast) was over 100 µM. It also gave a GI50 (HS 578T breast) of 0.14 µM, a TGI (HS 578T breast) of 1.64 µM and a GI50 (NCI-H460 lung) of 0.365 µM. The TGI (NCI-H460 lung) was over 100 µM, the GI50 (SK-MEL-2 melanoma) was 1.16 µM and the TGI (SK-MEL-2 melanoma) was 4.85 µM. The GI50 (K-562 leukemia) was 2.7 µM, the TGI (K-562 leukemia) was over 100 µM and the GI50 (M14 melanoma) was 0.976 µM. The TGI (M14 melanoma) was over 100 µM, the GI50 (HOP-62 NSCLC) was 0.791 µM and the TGI (HOP-62 NSCLC) was over 22.6 µM. The GI50 (SK-MEL-5 melanoma) was 1.2 µM, the TGI (SK-MEL-5 melanoma) was 3.07 µM and the GI50 (HL-60(TB) leukemia) was 0.538 µM. The TGI (HL-60(TB) leukemia) was over 27.8 µM, the GI50 (SR leukemia) was 1.24 µM and the TGI (SR leukemia) was over 35.9 µM. For the same compound, the GI50 (LOX IMVI melanoma) was 0.48 µM, the TGI (LOX IMVI melanoma) was 11.8 µM and the GI50 (SK-OV-3 ovarian) was 0.263 µM. The TGI (SK-OV-3 ovarian) was 2.32 µM, the GI50 (NCI/ADR-RES ovarian) was 1.24 µM and the TGI (NCI/ADR-RES ovarian) was 30.3 µM. It also gave a GI50 (CAKI-1 renal) of 0.415 µM, a TGI (CAKI-1 renal) of 27 µM and a GI50 (HCT-15 colon) of 0.447 µM. For the same compound, the TGI (HCT-15 colon) was over 71.1 µM, the GI50 (ACHN renal) was 0.781 µM and the TGI (ACHN renal) was over 100 µM. For the same compound, the GI50 (SK-MEL-28 melanoma) was 0.306 µM, the TGI (SK-MEL-28 melanoma) was 6.89 µM and the GI50 (NCI-H226 lung) was 1.25 µM. The TGI (NCI-H226 lung) was 74.7 µM, the GI50 (HT29 colon) was 0.541 µM and the TGI (HT29 colon) was over 100 µM. For the same compound, the GI50 (MDA-MB-231 breast) was 1.84 µM, the TGI (MDA-MB-231 breast) was 26.4 µM and the GI50 (UACC-257 melanoma) was 0.959 µM. It also gave a TGI (UACC-257 melanoma) of 7.05 µM, a GI50 (IGROV1 ovarian) of 0.0964 µM and a TGI (IGROV1 ovarian) of 0.852 µM. The GI50 (SNB-19 CNS) was 1.67 µM, the TGI (SNB-19 CNS) was 23.4 µM and the GI50 (COLO 205 colon) was 0.829 µM. It also gave a TGI (COLO 205 colon) of 13.1 µM, a GI50 (T-47D breast) of 0.0944 µM and a TGI (T-47D breast) of 0.691 µM. For the same compound, the GI50 (OVCAR-3 ovarian) was 0.617 µM, the TGI (OVCAR-3 ovarian) was 13.8 µM and the GI50 (UACC-62 melanoma) was 0.181 µM. The TGI (UACC-62 melanoma) was 1.95 µM, the GI50 (HOP-92 NSCLC) was 0.0408 µM and the TGI (HOP-92 NSCLC) was 0.634 µM. It also gave a GI50 (SF-295 CNS) of 0.298 µM, a TGI (SF-295 CNS) of 3.82 µM and a GI50 (MOLT-4 leukemia) of 0.491 µM. It also gave a TGI (MOLT-4 leukemia) of 4.89 µM, a GI50 (MALME-3M melanoma) of 0.227 µM and a TGI (MALME-3M melanoma) of 2.48 µM. The GI50 (TK-10 renal) was 0.505 µM, the TGI (TK-10 renal) was 10.6 µM and the GI50 (CCRF-CEM leukemia) was 0.687 µM. The TGI (CCRF-CEM leukemia) was over 62.7 µM, the GI50 (KM12 colon) was 1.46 µM and the TGI (KM12 colon) was 19.2 µM. The GI50 (SF-268 CNS) was 1.09 µM, the TGI (SF-268 CNS) was over 100 µM and the GI50 (PC-3 prostate) was 0.361 µM. It also gave a TGI (PC-3 prostate) of 26.1 µM.
